This note sets out measurements from BindingDB's records for patent US10123984 (Theravance Biopharma R&D Ip, 2018).

This experiment has as its target Neprilysin (Homo sapiens, UniProt P08473). The experiment is described as follows: Enzyme NEP Inhibition Assay.
Procedure: The assays were performed in 384-well white opaque plates at 37° C. using the fluorogenic peptide substrates at a concentration of 10 μM in Assay Buffer (NEP: 50 mM HEPES, pH 7.5, 100 mM NaCl, 0.01% polyethylene glycol sorbitan monolaurate (Tween-20), 10 μM ZnSO4; ACE: 50 mM HEPES, pH 7.5, 100 mM NaCl, 0.01% Tween-20, 1 μM ZnSO4). […] Test compounds were added to the enzymes and incubated for 30 minute at 37° C. prior to initiating the reaction by the addition of substrate.
The compound `C[C@H](C[C@@H](Cc1ccc(-c2ccccc2)cc1)NC(=O)CCCCC(=O)O)C(=O)O` [US10123984, Compound 21f] returned a concentration for half-maximal inhibition (IC50) of 324 nM.
As to `O=C(O)C(=O)N[C@H](Cc1ccc(-c2cccc(Cl)c2)cc1)C[C@@H](O)C(=O)O` [US10123984, Example 2A], the Ki is less than 1 nM.
On the same count and under the same terms, with `COCCOC(=O)C(=O)N[C@H](Cc1ccc(-c2cccc(Cl)c2)cc1)C[C@@H](O)C(=O)O` [US10123984, Example 2T] the figure was less than 1 nM; with `CCOCCCOC(=O)C(=O)N[C@H](Cc1ccc(-c2cccc(Cl)c2)cc1)C[C@@H](O)C(=O)O` [US10123984, Example 2V], less than 1 nM.
Compound `CCOC(=O)C(=O)N[C@H](Cc1ccc(-c2cccc(Cl)c2)cc1)C[C@@H](O)C(=O)O` [US10123984, Example 2F] yielded an inhibition constant Ki of less than 1 nM.
Still for that read-out and setting: with `CC(C)COC(=O)C(=O)N[C@H](Cc1ccc(-c2cccc(Cl)c2)cc1)C[C@@H](O)C(=O)O` [US10123984, Example 2H] the figure was less than 1 nM.
Compound `C[C@H](C[C@@H](Cc1ccc(-c2ccccc2)cc1)NC(=O)CCCC(=O)O)C(=O)O` [US10123984, Compound 21e] showed an IC50 of 90 nM.
`C[C@H](CC(Cc1ccc(-c2ccccc2)cc1)NC(=O)CC(=O)O)C(=O)O` (some centres undefined) [US10123984, Compound 21g] displayed a concentration for half-maximal inhibition (IC50) of 92 nM.
In turn, `O=C(N[C@H](Cc1ccc(-c2cccc(Cl)c2)cc1)C[C@@H](O)C(=O)O)C(=O)OCCOc1ccccc1` [US10123984, Example 2U] gave an inhibition constant (Ki) of less than 1 nM.

One may read the IC50 as the concentration that gives 50% inhibition. Read a low IC50 as inhibition by little substance. What is called Ki is the equilibrium dissociation constant of an inhibitor or competing ligand from its target. A higher Ki goes with a looser hold on the target.
